Laboratory results: publication PMC7144182, “Synthesis, biological evaluation and molecular modelling of 2,4-disubstituted-5-(6-alkylpyridin-2-yl)-1H-imidazoles as ALK5 inhibitors” (Journal of Enzyme Inhibition and Medicinal Chemistry, 2020)
Values joined by “and” are separate entries in the source; they are usually repeats but may differ in a detail not shown here. Equal entries are not always repeated.

Key:
[1] = tested on: TGF-β1-induced luciferase reporter activity, HaCaT (3TP-luc) stable cells; assay: Cell-based p3TP-luciferase reporter assay; conditions: for IC50: Homo sapiens, HaCaT, read-out: IC50 for p3TP-luciferase
Description: To establish HaCaT (3TP-luc) stable cells, cells were seeded on six-well plates. Cells were allowed to adhere overnight and then transfected with the p3TP-luc (neo) expression plasmid using PEI reagent (Sigma Aldrich). Transfected cells were cultured for four weeks in the presence of G418 (500 µg/mL). Several single clones were isolated and measured luciferase activity. The clone showing response to TGF-β1 treatment was used for reporter assay. HaCaT (3TP-luc) stable cells were seeded at 2.5 × 10^4 cells/well in 96-well plate and were allowed to adhere overnight. Cells were concomitantly treated with TGF-β1 (2 ng/mL) and indicated concentrations of ALK5 inhibitors in 0.2% FBS medium and incubated for 24 h at 37 °C in 5% CO2. Cell lysates were prepared using Luciferase Assay System (Promega) according to the manufacturer’s instruction, and luminescence was measured by a luminometer, Micro Lumat Plus (Berthold, Germany).

[2] = target: T1, purified human ALK5 kinase domain (Homo sapiens, UniProt P36897); assay: ALK5 kinase assay (33PanQinase, casein as substrate); type: biochemical; conditions: casein substrate, 1 μM ATP; singlicate (11e: mean of triplicates)
T1 construct: using the purified human ALK5 kinase domain produced in Sf9 insect cells; host or cells: Sf9 insect cells
T1 sequence (P36897 205-495 limits assumed): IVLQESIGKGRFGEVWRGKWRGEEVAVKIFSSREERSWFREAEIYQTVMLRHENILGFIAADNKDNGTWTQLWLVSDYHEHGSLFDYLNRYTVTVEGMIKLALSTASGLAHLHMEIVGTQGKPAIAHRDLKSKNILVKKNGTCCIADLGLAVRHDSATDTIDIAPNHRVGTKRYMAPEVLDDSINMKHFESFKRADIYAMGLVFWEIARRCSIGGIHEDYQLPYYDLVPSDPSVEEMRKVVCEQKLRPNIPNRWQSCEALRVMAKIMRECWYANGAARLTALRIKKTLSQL
Description: To evaluate whether these potential inhibitors 7a–c, 11a–h, and 16a–h could inhibit ALK5, a kinase assay was performed using the purified human ALK5 kinase domain produced in Sf9 insect cells and casein as a substrate (Table 1).

Caco-2 cells = assay: Caco-2 cell permeability assay; type: in vitro ADME; conditions: 100 µM, AP to BL, 2 h; mean ± SD of quadruplicates
Description: Caco-2 cells were seeded in Transwell® polycarbonate filter at a density of 8 × 10^4 cells/filter and cultured for 21 days. Culture medium was removed from both apical (AP) and basolateral (BL) chambers of transwell, and the wells were rinsed three times with PBS. AP buffer (HBSS, pH 6.5) containing 10 mM MES and BL buffer (HBSS, pH 7.4) containing 10 mM HEPES were loaded in AP (500 µL) and BL (1500 µL) chambers, respectively, followed by incubation for 30 min at 37 °C. Then, test compound (100 µM) was added to the AP side and incubated for 2 h at 37 °C. After the incubation, BL buffer was collected and analysed using an UV spectrophotometer at a maximum wavelength (wavelength 225–357 nm).
To estimate oral absorption of target compounds, their permeability in a Caco-2 monolayer was evaluated at a concentration of 100 µM (Table 1).

ALK5 [3] = target: T2, ALK5 (Homo sapiens, UniProt P36897)
T2 sequence (P36897 34-503): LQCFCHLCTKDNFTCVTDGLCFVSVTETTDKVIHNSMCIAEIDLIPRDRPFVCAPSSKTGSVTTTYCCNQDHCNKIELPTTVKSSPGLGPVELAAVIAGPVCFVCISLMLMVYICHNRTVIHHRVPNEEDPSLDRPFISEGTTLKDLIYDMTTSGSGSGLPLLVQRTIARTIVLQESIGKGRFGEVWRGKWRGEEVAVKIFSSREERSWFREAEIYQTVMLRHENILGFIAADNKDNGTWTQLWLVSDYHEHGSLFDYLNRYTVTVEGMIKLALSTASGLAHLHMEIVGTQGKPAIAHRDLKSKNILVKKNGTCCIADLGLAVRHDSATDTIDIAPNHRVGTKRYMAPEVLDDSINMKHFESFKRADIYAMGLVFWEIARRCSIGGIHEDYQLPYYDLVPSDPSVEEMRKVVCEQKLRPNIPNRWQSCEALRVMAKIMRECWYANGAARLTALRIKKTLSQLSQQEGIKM

p38α = p38α (Homo sapiens, UniProt Q16539); assay: p38α kinase assay (33PanQinase, ATF2 as substrate); type: biochemical; conditions: for IC50: ATF2 substrate, mean of duplicates
p38α, sequence (Q16539 whole entry): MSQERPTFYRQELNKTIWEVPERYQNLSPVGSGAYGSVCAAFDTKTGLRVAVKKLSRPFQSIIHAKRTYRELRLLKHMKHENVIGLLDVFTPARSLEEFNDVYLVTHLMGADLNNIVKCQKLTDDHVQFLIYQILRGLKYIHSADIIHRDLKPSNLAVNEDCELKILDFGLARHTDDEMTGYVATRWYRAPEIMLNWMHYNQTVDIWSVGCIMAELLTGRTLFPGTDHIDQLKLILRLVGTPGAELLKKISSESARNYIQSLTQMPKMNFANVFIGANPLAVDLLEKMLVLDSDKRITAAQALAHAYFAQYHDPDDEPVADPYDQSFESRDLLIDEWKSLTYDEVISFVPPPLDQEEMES

[4] = tested on: panel of 28 protein kinases; conditions: panel of 28 protein kinases (19 serine/threonine, 9 tyrosine kinases)
Description: Because ALK5 is a serine/threonine kinase, we chose 19 serine/threonine kinases including ALK5 and an ALK family kinase, ACV-R1 (ALK5, ACV-R1, Aurora-A, ARK5, B-Raf, CK2α1, COT, DAPK1, IRAK4, JNK3, MAPKAPK5, MST4, NEK2, NLK, PAK1, PIM1, PRK1, S6K, SGK1) and 9 tyrosine kinases (ABL1, CSK, FGF-R1, FLT3, IGF1-R, PDGFR-α, SRC, VEGF-R1, ZAP70).

ALK5 [5] = conditions: cited from earlier work
ALK5 [6] = conditions: cited from earlier work; remark: listed apart in the source
[7] = rats; cited from earlier work

Row | SMILES | % inhibition in luciferase reporter assay ([1]; 0.1 µM inhibitor) | p3TP-luciferase activity (% control) ([1]; 0.1 μM inhibitor, TGF-β1 2 ng/mL, 24 h, mean ± SD of three independent experiments) | IC50 [1] | IC50 [2] | Caco-2 permeability (%) (Caco-2 cells) | fold higher potency compared to galunisertib (ALK5 [3]; ALK5 kinase assay) | IC50 (ALK5 [3]; read-out: IC50 for ALK5, GSK3 (14–27) substrate, 1 μM ATP, mean of duplicates) | Selectivity index (IC50 for p38α/IC50 for ALK5) (p38α) | fold less selective against p38α than vactosertib (p38α) | fold more selective against p38α than galunisertib (p38α) | IC50 (p38α) | Selectivity indices against all the kinases tested [4] | ALK5 inhibitory activity in a cell-based luciferase reporter assay (ALK5 [5]) | ALK5 inhibitory activity in a kinase assay (ALK5 [6]) | oral bioavailability [7]
1 | Cc1cccc(-c2[nH]c(Cc3cccc(C(N)=O)c3)nc2-c2ccc3nccnc3c2)n1 [Compound 11e, 3-((5-(6-Methylpyridin-2-yl)-4-(quinoxalin-6-yl)-1H-imidazol-2-yl)methyl)benzamide] | 92 % inhibition | 8 ± 5.8 % control | 19.6 nM | 36 nM | 56% and 56 ± 26.8% | 6.6 fold | 13 nM | 22 | 6.2 fold | 5.5 fold | 288 nM | > 100 | – | – | –
2 | Cc1cccc(-c2nn3c(c2-c2ccnc4ccc(C(N)=O)cc24)CCC3)n1 [Galunisertib (1), reference compound] | – | – | > 100 nM | – | – | – | – | – | – | – | 320 nM | – | – | – | –
3 | Cc1cccc(-c2[nH]c(CNc3ccccc3F)nc2-c2ccc3ncnn3c2)n1 [Vactosertib (2), N-((4-([1,2,4]triazolo[1,5-a]pyridin-6-yl)-5-(6-methylpyridin-2-yl)-1H-imidazol-2-yl)methyl)-2-fluoroaniline] | – | – | – | – | – | – | – | – | – | – | – | – | subnanomolar | subnanomolar | moderate
